Values of other authors, collected in patent EP1180016B1, “METHODS AND COMPOSITIONS FOR NON-VIRAL GENE THERAPY FOR TREATMENT OF HYPERPROLIFERATIVE DISEASES” (Introgen Therapeutics, Inc., priority 1999, dated 2000).
Counter-ions that a name gives are not always drawn. *1 amine or outer side, *2 acyl side, *3 side chain or, on linkers, in order; H or OH if unused. Where a SMILES comes first, the peptide text is derived from it. Bridges are numbered along the chain shown (N, C = ends). Roman numbers before positions name the chains, in order. [ ]: non-standard residue; d: D form. Actinocin(9to1) = Cc1c2oc3c(C)ccc(C(=O)[*:1])c3nc-2c(C(=O)[*:2])c(N)c1=O; NMeV = CN[C@H](C(=O)O)C(C)C; Sar = CNCC(=O)O

How the values were obtained:
[1] = physiological pH
[2] = test system: chronic myelogenous leukemia; details: previously untreated chronic myelogenous leukemia

## O=NN(CCCl)C(=O)NC1CCCCC1 [Lomustine, 1-(2-chloro-ethyl)-3-cyclohexyl-1 nitrosourea]
[1]
  ionization: relatively unionized
Oral radioactive lomustine, 30 mg/m^2 to 100 mg/m^2
  radioactivity excreted in the form of degradation products within 24 hours: about half

## CS(=O)(=O)OCCCCOS(C)(=O)=O [Busulfan, 1,4-butanediol dimethanesulfonate]
[2]
  adults obtaining hematologic remission with regression or stabilization of organomegaly: Approximately 90%

## O=C(O)CCCc1ccc(N(CCCl)CCCl)cc1 [Chlorambucil, 4-[bis(2-chlorethyl)amino] benzenebutanoic acid]
Single oral doses of 0.6-[…]
  terminal half-life of the parent drug: 1.5 h

## COc1cccc2c1C(=O)c1c(O)c3c(c(O)c1C2=O)C[C@@](O)(C(C)=O)C[C@@H]3O[C@H]1C[C@H](N)[C@H](O)[C@H](C)O1 [Daunorubicin, 5,12-Naphthacenedione, (8S-cis)-8-acetyl-10-[(3-amino-2,3,6-trideoxy-a-L-lyxo-hexanopyranosyl)oxy]-7,8,9,10-tetrahydro-6,8,11-trihydroxy-10-methoxy-, hydrochloride]
intravenous
  half-life of distribution: 0.75 h

## Cc1c2oc3c(C)ccc(C(=O)N[C@@H]4C(=O)N[C@H](C(C)C)C(=O)N5CCC[C@H]5C(=O)N(C)CC(=O)N(C)[C@@H](C(C)C)C(=O)O[C@@H]4C)c3nc-2c(C(=O)N[C@@H]2C(=O)N[C@H](C(C)C)C(=O)N3CCC[C@H]3C(=O)N(C)CC(=O)N(C)[C@@H](C(C)C)C(=O)O[C@@H]2C)c(N)c1=O [Actinomycin D] (I: T[dV]P[Sar][NMeV] / II: T[dV]P[Sar][NMeV]; ester I:1-I:C, II:1-II:C; linker I:N-II:N via Actinocin(9to1))
In vivo
  dose excreted intact into the bile: Half
